Test results: paper PMC11581908 (Nature chemical biology, 2024)

Tests used:
FBXO22 = molecular target: T1, FBXO22 (Homo sapiens, UniProt Q8NEZ5); assay: cysteine-directed ABPP in cells; format: cell-based
T1 sequence (Q8NEZ5 1-403): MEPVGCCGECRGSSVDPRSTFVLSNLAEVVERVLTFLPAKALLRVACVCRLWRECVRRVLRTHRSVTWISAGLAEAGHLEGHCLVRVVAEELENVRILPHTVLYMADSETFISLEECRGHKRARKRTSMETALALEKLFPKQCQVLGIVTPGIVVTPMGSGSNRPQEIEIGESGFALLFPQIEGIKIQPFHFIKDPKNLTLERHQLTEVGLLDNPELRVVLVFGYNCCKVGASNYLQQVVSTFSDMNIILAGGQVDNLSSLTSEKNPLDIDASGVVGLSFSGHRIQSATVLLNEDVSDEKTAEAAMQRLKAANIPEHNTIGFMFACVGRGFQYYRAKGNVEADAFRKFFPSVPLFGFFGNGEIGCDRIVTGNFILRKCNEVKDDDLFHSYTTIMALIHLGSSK

FKBP12 = FKBP12 (Homo sapiens, UniProt P62942); format: cell-based
Chain of FKBP12 (P62942 2-108): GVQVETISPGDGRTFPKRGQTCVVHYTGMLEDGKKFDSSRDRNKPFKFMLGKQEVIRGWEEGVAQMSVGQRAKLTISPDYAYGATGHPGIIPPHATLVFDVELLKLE

% of C228 blocked at 2 μM (FBXO22): ~ 20 % of C228 blocked at 2 μM
EC50 (FKBP12): 1960 nM
SMILES: CCC(C)(C)C(=O)C(=O)N1CCCC[C@H]1C(=O)O[C@H](CCc1ccc(OC)c(OC)c1)c1cccc(OCC(=O)NCCCOCCOCCOCCCN(C(=O)CCl)C(C(=O)NCc2ccccc2)c2nc3ccccc3s2)c1 (some centres unmarked) [compound 1, 22-SLF]
